# Reference: patent US20240246908A1 (ORION CORPORATION, priority 2021, published 2024)
# Tested on: YAP-TEAD
# Assay: TEAD inhibition, Hippo Pathway TEAD Reporter MCF-7 luciferase assay
# Format: cell-based
# Conditions: Homo sapiens, MCF7, 24 h, Hippo Pathway TEAD Reporter MCF-7 cells, luciferase activity after 24 h; read-out: IC50 of the test compounds on YAP-TEAD inhibition (Group)
# In short: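 IC50 derived from ONE-Glo luciferase luminescence after 24 h compound exposure (11 concentrations in quadruplicate, 0.1% DMSO control). Reporter: MCF-7 line expressing firefly luciferase under TEAD elements, constitutively activated by nuclear YAP1.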
row,IC50 [nM],SMILES
1,301 to 2000,"CN1C(=O)CCC1C(=O)Nc1cc(Oc2ccc(F)c(F)c2)ccc1-c1nnco1 (stereo not drawn) [Compound 224, N-(5-(3,4-Difluorophenoxy)-2-(1,3,4-oxadiazol-2-yl)phenyl)-1-methyl-5-oxopyrrolidine-2-carboxamide]"
2,301 to 2000,"CN1C(=O)CCC1C(=O)Nc1cc(Oc2ccc(C(F)(F)F)cc2)cc2cn[nH]c12 (stereo not drawn) [Compound 225, 1-Methyl-5-oxo-N-(5-(4-(trifluoromethyl)phenoxy)-1H-indazol-7-yl)-pyrrolidine-2-carboxamide]"
3,< 50,"COc1ccc(Oc2ccc(C(F)(F)F)cc2)cc1NC(=O)[C@@H]1CN(C)C(=O)N1C [Compound 226, (S)—N-(2-Methoxy-5-(4-(trifluoromethyl)phenoxy)phenyl)-1,3-dimethyl-2-oxoimidazolidine-4-carboxamide]"
4,< 50,"COc1ccc(Oc2ccc(C(F)(F)F)cc2)cc1NC(=O)[C@H]1CN(C)C(=O)N1C [Compound 227, (R)—N-(2-Methoxy-5-(4-(trifluoromethyl)phenoxy)phenyl)-1,3-dimethyl-2-oxoimidazolidine-4-carboxamide]"
5,301 to 2000,"COc1ccc(Oc2ccc(C(F)(F)F)cc2)cc1NC(=O)C1CN(C)C(=O)C1O (stereo not drawn) [Compound 228, 4-Hydroxy-N-(2-methoxy-5-(4-(trifluoromethyl)phenoxy)phenyl)-1-methyl-5-oxopyrrolidine-3-carboxamide]"
6,< 50,"COc1ccc(Oc2ccc(C(F)(F)F)cc2)cc1NC(=O)C1CCC(=O)N1C(=O)C1CCC(=O)N1 (stereo not drawn) [Compound 229, N-(2-Methoxy-5-(4-(trifluoromethyl)phenoxy)phenyl)-5-oxo-1-(5-oxopyrrolidine-2-carbonyl)pyrrolidine-2-carboxamide]"
7,< 50,"COc1ccc(Oc2ccc(C(F)(F)F)cc2)cc1NC(=O)C1CCC(=O)N1C(=O)C1CCC(=O)N1C (stereo not drawn) [Compound 230, N-(2-Methoxy-5-(4-(trifluoromethyl)phenoxy)phenyl)-1-(1-methyl-5-oxo-pyrrolidine-2-carbonyl)-5-oxopyrrolidine-2-carboxamide]"
8,< 50,"COc1ccc(Oc2ccc(C(F)(F)F)cc2)cc1NC(=O)C1CCC(=O)N1C(=O)C1CC(=O)N1 (stereo not drawn) [Compound 231, N-(2-Methoxy-5-(4-(trifluoromethyl)phenoxy)phenyl)-5-oxo-1-(4-oxoazetidine-2-carbonyl)pyrrolidine-2-carboxamide]"
9,50 to 300,"COc1ccc(Oc2ccc(F)c(F)c2)cc1NC(=O)C1CCC(=O)N1C(=O)C1CC(=O)N1 (stereo not drawn) [Compound 232, N-(5-(3,4-difluorophenoxy)-2-methoxyphenyl)-5-oxo-1-(4-oxoazetidine-2-carbonyl)pyrrolidine-2-carboxamide]"
10,50 to 300,"CN1C(=O)CCC1C(=O)Nc1cc(Oc2cccc(C(F)(F)F)c2)cc2c1OCCO2 (stereo not drawn) [Compound 233, 1-Methyl-5-oxo-N-(7-(3-(trifluoromethyl)phenoxy)-2,3-dihydrobenzo[b][1,4]dioxin-5-yl)pyrrolidine-2-carboxamide]"
11,301 to 2000,"Cc1c(Oc2cccc(C(F)(F)F)c2)cc(NC(=O)C2CCC(=O)N2C)c2c1OCCO2 (stereo not drawn) [Compound 236, 1-Methyl-N-(8-methyl-7-(3-(trifluoromethyl)phenoxy)-2,3-dihydrobenzo[b]-[1,4]dioxin-5-yl)-5-oxopyrrolidine-2-carboxamide]"
12,< 50,"CN1C(=O)CCC1C(=O)Nc1cc(Oc2ccc(C(F)(F)F)cc2)cc2c1OCC2 (stereo not drawn) [Compound 237, 1-Methyl-5-oxo-N-(5-(4-(trifluoromethyl)phenoxy)-2,3-dihydrobenzofuran-7-yl)pyrrolidine-2-carboxamide]"
13,50 to 300,"CN1C(=O)CCC1C(=O)Nc1cc(OCc2cccc(C(F)(F)F)c2)cc2c1OCC2 (stereo not drawn) [Compound 238, 1-Methyl-5-oxo-N-(5-((3-(trifluoromethyl)benzyl)oxy)-2,3-dihydrobenzofuran-7-yl)pyrrolidine-2-carboxamide]"
14,< 50,"CN1C(=O)CCC1C(=O)Nc1cc(Oc2ccc(F)c(F)c2)cc2c1OCC2 (stereo not drawn) [Compound 239, N-(5-(3,4-Difluorophenoxy)-2,3-dihydrobenzofuran-7-yl)-1-methyl-5-oxopyrro-lidine-2-carboxamide]"
15,< 50,"CN1C(=O)CCC1C(=O)Nc1cc(Oc2ccc(F)c(F)c2)cc2c1OCCO2 (stereo not drawn) [Compound 240, N-(7-(3,4-Difluorophenoxy)-2,3-dihydrobenzo[b][1,4]dioxin-5-yl)-1-methyl-5-oxopyrrolidine-2-carboxamide]"
16,50 to 300,"CN1C(=O)CCC1C(=O)Nc1cc(Oc2ccc(F)cc2)cc2c1OCCO2 (stereo not drawn) [Compound 241, N-(7-(4-Fluorophenoxy)-2,3-dihydrobenzo[b][1,4]dioxin-5-yl)-1-methyl-5-oxo-pyrrolidine-2-carboxamide]"
17,50 to 300,"CN1C(=O)CCC1C(=O)Nc1cc(COc2ccc(F)c(F)c2)cc2c1OCC2 (stereo not drawn) [Compound 242, N-(5-((3,4-Difluorophenoxy)methyl)-2,3-dihydrobenzofuran-7-yl)-1-methyl-5-oxopyrrolidine-2-carboxamide]"
18,301 to 2000,"CN1C(=O)CCC1C(=O)Nc1cc(COc2ccc(F)c(F)c2)cc2c1CCO2 (stereo not drawn) [Compound 243, N-(6-((3,4-Difluorophenoxy)methyl)-2,3-dihydrobenzofuran-4-yl)-1-methyl-5-oxopyrrolidine-2-carboxamide]"

row,IC50 [nM],SMILES
1,50 to 300,"CN1C(=O)CCC1C(=O)Nc1cc(Oc2ccc(C(F)(F)F)cn2)cc2c1ncn2C (stereo not drawn) [Compound 244, 1-Methyl-N-(1-methyl-6-((5-(trifluoromethyl)pyridin-2-yl)oxy)-1H-benzo-[d]imidazol-4-yl)-5-oxopyrrolidine-2-carboxamide]"
2,301 to 2000,"COc1ccc(CNc2cccc(F)c2)cc1NC(=O)C1CCC(=O)N1 (stereo not drawn) [Compound 246, N-(5-(((3-Fluorophenyl)amino)methyl)-2-methoxyphenyl)-5-oxopyrrolidine-2-carboxamide]"
3,50 to 300,"COc1ccc(OC2CCC(F)(F)CC2)cc1NC(=O)C1CCC(=O)N1C (stereo not drawn) [Compound 247, N-(5-((4,4-Difluorocyclohexyl)oxy)-2-methoxyphenyl)-1-methyl-5-oxopyrrolidine-2-carboxamide]"
4,< 50,"CN1C(=O)CCC1C(=O)Nc1cc(OCc2ccc(F)c(F)c2)cc2c1OCC2 (stereo not drawn) [Compound 248, N-(5-((3,4-Difluorobenzyl)oxy)-2,3-dihydrobenzofuran-7-yl)-1-methyl-5-oxopyrrolidine-2-carboxamide]"
5,50 to 300,"CN1C(=O)CCC1C(=O)Nc1cc(COc2cccc(F)c2)cc2ccoc12 (stereo not drawn) [Compound 249, N-(5-((3-Fluorophenoxy)methyl)benzofuran-7-yl)-1-methyl-5-oxopyrrolidine-2-carboxamide]"
6,301 to 2000,"COc1cc(Oc2ccc(F)c(F)c2)cc(NC(=O)C2CCC(=O)N2C)c1F (stereo not drawn) [Compound 251, N-(5-(3,4-difluorophenoxy)-2-fluoro-3-methoxyphenyl)-1-methyl-5-oxopyrro-lidine-2-carboxamide]"
7,301 to 2000,"COc1ccc(Oc2ccc(C(F)(F)F)cc2)cc1NC(=O)C12CCC(=O)N1CCS2(=O)=O (stereo not drawn) [Compound 252, N-(2-Methoxy-5-(4-(trifluoromethyl)phenoxy)phenyl)-5-oxotetrahydropyrrolo[2,1-b]thiazole-7a(5H)-carboxamide 1,1-dioxide]"
8,< 50,"COc1cc(NC(=O)C2CCC(=O)N2)cc(Oc2ccc(C(F)(F)F)cc2)c1 (stereo not drawn) [Compound 253, N-(3-Methoxy-5-(4-(trifluoromethyl)phenoxy)phenyl)-5-oxopyrro-lidine-2-carboxamide]"
9,50 to 300,"COc1ccc(/C=C/c2cccc(F)c2)cc1NC(=O)C1CCC(=O)N1C (stereo not drawn) [Compound 254, (E)-N-(5-(3-Fluorostyryl)-2-methoxyphenyl)-1-methyl-5-oxopyrrolidine-2-carboxamide]"
10,< 50,"COc1ccc(OC2CCC(C(F)(F)F)CC2)cc1NC(=O)C1CCC(=O)N1C (stereo not drawn) [Compound 255, N-(2-Methoxy-5-((4-(trifluoromethyl)cyclohexyl)oxy)phenyl)-1-methyl-5-oxo-pyrrolidine-2-carboxamide]"
11,50 to 300,"COc1ccc(Cc2cccc(C(F)(F)F)c2)cc1NC(=O)C1CCC(=O)N1C (stereo not drawn) [Compound 256, N-(2-Methoxy-5-(3-(trifluoromethyl)benzyl)phenyl)-1-methyl-5-oxopyrrolidine-2-carboxamide]"
12,50 to 300,"COc1ccc(Cc2ccc(C(F)(F)F)cc2)cc1NC(=O)C1CCC(=O)N1C (stereo not drawn) [Compound 257, N-(2-Methoxy-5-(4-(trifluoromethyl)benzyl)phenyl)-1-methyl-5-oxopyrrolidine-2-carboxamide]"
13,50 to 300,"CN1C(=O)CCC1C(=O)Nc1cc(Oc2ccc(C(F)(F)F)cc2)ccc1Cl (stereo not drawn) [Compound 258, N-(2-Chloro-5-(4-(trifluoromethyl)phenoxy)phenyl)-1-methyl-5-oxopyrrolidine-2-carboxamide]"
14,50 to 300,"COc1ccc(NC(=O)C2CCC(=O)N2C)cc1Oc1ccc(C(F)(F)F)cc1 (stereo not drawn) [Compound 259, N-(4-Methoxy-3-(4-(trifluoromethyl)phenoxy)phenyl)-1-methyl-5-oxo-pyrrolidine-2-carboxamide]"
15,50 to 300,"COc1ccc(Oc2ccc(F)cc2)cc1NC(=O)C1CCC(=O)N1C (stereo not drawn) [Compound 260, N-(5-(4-Fluorophenoxy)-2-methoxyphenyl)-1-methyl-5-oxopyrrolidine-2-carboxamide]"
16,50 to 300,"COc1cc(NC(=O)C2CCC(=O)N2)cc(Oc2cccc(C(F)(F)F)c2)c1 (stereo not drawn) [Compound 261, N-(3-Methoxy-5-(3-(trifluoromethyl)phenoxy)phenyl)-5-oxopyrrolidine-2-carboxamide]"
17,301 to 2000,"COc1ccc(Oc2cnc(F)c(C)c2)cc1NC(=O)C1CCC(=O)N1 (stereo not drawn) [Compound 262, N-(5-((6-Fluoro-5-methylpyridin-3-yl)oxy)-2-methoxyphenyl)-5-oxopyrrolidine-2-carboxamide]"
18,50 to 300,"COc1ccc(Oc2cnc(F)c(C)c2)cc1NC(=O)[C@H]1CCC(=O)N1C [Compound 263, (R)—N-(5-((6-fluoro-5-methylpyridin-3-yl)oxy)-2-methoxyphenyl)-1-methyl-5-oxopyrrolidine-2-carboxamide]"
